Experimental data reported in patent US20140220690A1, “MAMMALIAN GENES INVOLVED IN INFECTION” (priority 2009, published 2014).

Assays:
herpes simplex virus = assay type: cell-based

SMILES	% Effectiveness (vaccinia virus) [%]	Effective (vaccinia virus)	Effective [uM] (vaccinia virus) [µM]	inhibition of vaccinia virus infection (in words) (vaccinia virus)	reversal of the antiviral effect of anisomycin (herpes simplex virus)	spread of virus over time (vaccinia virus)	state of the cells (vaccinia virus)
C[C@]12CC[C@@H]3c4ccc(O)cc4CC[C@H]3[C@@H]1CC[C@@H]2O [17-B Estradiol, 17-B-Estradiol]	50	✓	100	inhibited infection with vaccinia virus	–	–	–
N#CC(=C(/N)Sc1ccccc1N)/C(C#N)=C(\N)Sc1ccccc1N [U0126]	–	–	–	–	this effect was reversed	–	–
C[C@]12CC[C@H](O)CC1=CC[C@@H]1[C@@H]2CC[C@]2(C)C(=O)CC[C@@H]12 [DHEA]	99	✓	30	inhibited infection with vaccinia virus	–	the virus usually starts to spread after day 2	–
CC(C)(c1ccc(OCC2CO2)cc1)c1ccc(OCC2CO2)cc1 (stereo not drawn) [BADGE]	75	✓	50 to 100	inhibited infection with vaccinia virus	–	–	–
COc1ccc(C[C@@H]2NC[C@@H](O)[C@@H]2OC(C)=O)cc1 [ANISOMYCIN, [(2S,3R,4R)-4-hydroxy-2-[(4-methoxyphenyl)methyl]pyrrolidin-3-yl]acetate]	–	–	–	–	–	–	the cells were healthy
